Literature values, collected in patent US20170071955A1, “METHOD OF STABILIZING WEIGHT AFTER A WEIGHT-LOSS DIET USING PHYTOECDYSONES” (BIOPHYTIS SA, priority 2011, published 2017).

Details: mammals on a fattening hypercaloric diet

CC(C)(O)CC[C@@H](O)[C@](C)(O)[C@H]1CC[C@@]2(O)C3=CC(=O)[C@@H]4C[C@@H](O)[C@@H](O)C[C@]4(C)[C@H]3CC[C@]12C [20-hydroxyecdysone]
effect on body fat: reduce the increase of body fat
